Assays:
NIM1 = target: T1, NIM1 (Homo sapiens, UniProt Q8IY84); assay: KinomeScan; format: binding; conditions: read-out: % control
T1 construct: purchased DiscoveRx KINOMEscan

HPK1 = target: T2, HPK1 (Homo sapiens, UniProt Q92918); assay: KinomeScan; format: binding; conditions: read-out: % control
T2 construct: purchased DiscoveRx KINOMEscan

RIPK1 = target: T3, RIPK1 (Homo sapiens, UniProt Q13546); assay: KinomeScan; format: binding; conditions: read-out: % control
T3 construct: purchased DiscoveRx KINOMEscan

[1] = target: T4, EGFR(L747-S752del, P753S) (Homo sapiens, UniProt P00533, DEL747-752/P753S); assay: KinomeScan; format: binding; conditions: read-out: % control
T4 construct: purchased DiscoveRx KINOMEscan

KIT-autoinhibited = target: T5, KIT-autoinhibited (Homo sapiens, UniProt P10721); assay: KinomeScan; format: binding; conditions: read-out: % control
T5 construct: purchased DiscoveRx KINOMEscan

SRPK1 = target: T6, SRPK1 (Homo sapiens, UniProt Q96SB4); assay: KinomeScan; format: binding; conditions: read-out: % control
T6 construct: purchased DiscoveRx KINOMEscan

TIE1 = target: T7, TIE1 (Homo sapiens, UniProt P35590); assay: KinomeScan; format: binding; conditions: read-out: % control
T7 construct: purchased DiscoveRx KINOMEscan

[2] = target: T8, JAK1(JH1domain-catalytic) (Homo sapiens, UniProt P23458); assay: KinomeScan; format: binding; conditions: read-out: % control
T8 construct: JAK1(JH1domain-catalytic); purchased DiscoveRx KINOMEscan

CAMKK1 = target: T9, CAMKK1 (Homo sapiens, UniProt Q8N5S9); assay: KinomeScan; format: binding; conditions: read-out: % control
T9 construct: purchased DiscoveRx KINOMEscan

EGFR(T790M) = target: T10, EGFR(T790M) (Homo sapiens, UniProt P00533, T790M); assay: KinomeScan; format: binding; conditions: read-out: % control
T10 construct: purchased DiscoveRx KINOMEscan

PCTK3 = target: T11, PCTK3 (Homo sapiens, UniProt Q07002); assay: KinomeScan; format: binding; conditions: read-out: % control
T11 construct: purchased DiscoveRx KINOMEscan

IKK-epsilon = target: T12, IKK-epsilon (Homo sapiens, UniProt Q14164); assay: KinomeScan; format: binding; conditions: read-out: % control
T12 construct: purchased DiscoveRx KINOMEscan

PIK3CA(E542K) = target: T13, PIK3CA(E542K) (Homo sapiens, UniProt P42336, E542K); assay: KinomeScan; format: binding; conditions: read-out: % control
T13 construct: purchased DiscoveRx KINOMEscan

EGFR(L861Q) = target: T14, EGFR(L861Q) (Homo sapiens, UniProt P00533, L861Q); assay: KinomeScan; format: binding; conditions: read-out: % control
T14 construct: purchased DiscoveRx KINOMEscan

CSNK1G1 = target: T15, CSNK1G1 (Homo sapiens, UniProt Q9HCP0); assay: KinomeScan; format: binding; conditions: read-out: % control
T15 construct: purchased DiscoveRx KINOMEscan

CAMK1G = target: T16, CAMK1G (Homo sapiens, UniProt Q96NX5); assay: KinomeScan; format: binding; conditions: read-out: % control
T16 construct: purchased DiscoveRx KINOMEscan

CSNK1A1L = target: T17, CSNK1A1L (Homo sapiens, UniProt Q8N752); assay: KinomeScan; format: binding; conditions: read-out: % control
T17 construct: purchased DiscoveRx KINOMEscan

GSK3A = target: T18, GSK3A (Homo sapiens, UniProt P49840); assay: KinomeScan; format: binding; conditions: read-out: % control
T18 construct: purchased DiscoveRx KINOMEscan

ACVR1B = target: T19, ACVR1B (Homo sapiens, UniProt P36896); assay: KinomeScan; format: binding; conditions: read-out: % control
T19 construct: purchased DiscoveRx KINOMEscan

MYLK = target: T20, MYLK (Homo sapiens, UniProt Q15746); assay: KinomeScan; format: binding; conditions: read-out: % control
T20 construct: purchased DiscoveRx KINOMEscan

MUSK = target: T21, MUSK (Homo sapiens, UniProt O15146); assay: KinomeScan; format: binding; conditions: read-out: % control
T21 construct: purchased DiscoveRx KINOMEscan

p38-beta = target: T22, p38-beta (Homo sapiens, UniProt Q15759); assay: KinomeScan; format: binding; conditions: read-out: % control
T22 construct: purchased DiscoveRx KINOMEscan

RET = target: T23, RET (Homo sapiens, UniProt P07949); assay: KinomeScan; format: binding; conditions: read-out: % control
T23 construct: purchased DiscoveRx KINOMEscan

AURKC = target: T24, AURKC (Homo sapiens, UniProt Q9UQB9); assay: KinomeScan; format: binding; conditions: read-out: % control
T24 construct: purchased DiscoveRx KINOMEscan

PC9 tumor xenografts = assay: PC9 cell inoculated xenograft mouse model; format: in vivo, mice; conditions: 21-day treatment
Protocol: Figure 5 Anti-tumor efficacy of CHMFL-EGFR-26 in PC9 cell inoculated xenograft mouse mode Female nu/nu mice bearing established PC9 tumor xenografts were treated with CHMFL-EGFR-26 at 25.0 and 50.0 mg/kg/d, or vehicle. Daily oral administration was initiated when PC9 tumors had reached a size of 200 to 400 mm^3. Each group contained 7 or 8 animals. Data, mean ± SEM. A. Body weight and B. Tumor size measurements from PC9 xenograft mice after CHMFL-EGFR-26 administration. Initial body weight and tumor size were set as 100%. C. Representative photographs of tumors in each group after 25.0 or 50.0 mg/kg/d CHMFL-EGFR-26 or vehicle treatment. D. Comparison of the final tumor weight in each group after 21-day treatment period. Numbers in columns indicate the mean tumor weight in each group. E. Representative micrographs of hematoxylin and eosin (HE), Ki-67, and TUNEL staining of tumor tissues with CHMFL-EGFR-26 treatment compared to the vehicle-treated group. […]
Five-week old female nu/nu mice were purchased from the Shanghai Experimental Center, Chinese Science Academy (Shanghai, China). […] Body weight and tumor growth was measured daily after CHMFL-EGFR-26 treatment. Tumor volumes were calculated as follows: tumor volume (mm^3)= [(W^2 × L)/2] in which width (W) is defined as the smaller of the two measurements and length (L) is defined as the larger of the two measurements.

PIK3C2B = target: T25, PIK3C2B (Homo sapiens, UniProt O00750); assay: KinomeScan; format: binding; conditions: read-out: % control
T25 construct: purchased DiscoveRx KINOMEscan

PIK3CG = target: T26, PIK3CG (Homo sapiens, UniProt P48736); assay: KinomeScan; format: binding; conditions: read-out: % control
T26 construct: purchased DiscoveRx KINOMEscan

EGFR(L747-T751del,Sins) = assay: KinomeScan; format: binding; conditions: 1μM

T22 sequence (Q15759 whole entry): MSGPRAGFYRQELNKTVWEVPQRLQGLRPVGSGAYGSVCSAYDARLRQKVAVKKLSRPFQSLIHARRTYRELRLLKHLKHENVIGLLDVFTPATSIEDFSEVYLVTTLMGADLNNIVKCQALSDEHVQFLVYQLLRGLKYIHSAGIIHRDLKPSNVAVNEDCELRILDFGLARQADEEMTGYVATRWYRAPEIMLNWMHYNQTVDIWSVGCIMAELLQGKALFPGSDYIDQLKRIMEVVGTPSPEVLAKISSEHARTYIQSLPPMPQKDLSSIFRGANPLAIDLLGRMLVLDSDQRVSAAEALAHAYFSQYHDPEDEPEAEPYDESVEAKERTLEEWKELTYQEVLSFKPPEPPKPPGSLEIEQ
T21 sequence (O15146 24-869): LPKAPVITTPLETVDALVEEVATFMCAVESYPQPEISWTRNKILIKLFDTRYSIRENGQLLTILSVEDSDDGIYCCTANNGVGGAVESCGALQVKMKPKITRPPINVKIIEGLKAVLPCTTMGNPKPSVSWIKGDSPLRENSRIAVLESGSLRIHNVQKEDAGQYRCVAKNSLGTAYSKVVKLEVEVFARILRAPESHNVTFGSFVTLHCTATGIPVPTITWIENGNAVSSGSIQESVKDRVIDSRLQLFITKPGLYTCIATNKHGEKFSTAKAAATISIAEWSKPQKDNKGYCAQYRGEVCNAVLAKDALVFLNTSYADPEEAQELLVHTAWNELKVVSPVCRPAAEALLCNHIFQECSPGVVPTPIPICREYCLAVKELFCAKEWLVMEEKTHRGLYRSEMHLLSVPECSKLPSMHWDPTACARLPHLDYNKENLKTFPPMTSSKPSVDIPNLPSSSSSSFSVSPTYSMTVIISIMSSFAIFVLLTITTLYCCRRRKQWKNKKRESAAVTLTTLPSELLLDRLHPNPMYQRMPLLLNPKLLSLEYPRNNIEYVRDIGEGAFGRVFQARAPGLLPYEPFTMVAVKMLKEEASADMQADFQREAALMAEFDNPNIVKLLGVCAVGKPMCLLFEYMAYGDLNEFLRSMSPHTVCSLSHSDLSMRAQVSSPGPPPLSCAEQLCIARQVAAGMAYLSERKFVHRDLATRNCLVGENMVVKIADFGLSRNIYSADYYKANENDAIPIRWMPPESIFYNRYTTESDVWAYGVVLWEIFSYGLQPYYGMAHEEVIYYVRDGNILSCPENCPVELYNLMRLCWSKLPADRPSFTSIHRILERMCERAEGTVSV
T1 sequence (Q8IY84 whole entry): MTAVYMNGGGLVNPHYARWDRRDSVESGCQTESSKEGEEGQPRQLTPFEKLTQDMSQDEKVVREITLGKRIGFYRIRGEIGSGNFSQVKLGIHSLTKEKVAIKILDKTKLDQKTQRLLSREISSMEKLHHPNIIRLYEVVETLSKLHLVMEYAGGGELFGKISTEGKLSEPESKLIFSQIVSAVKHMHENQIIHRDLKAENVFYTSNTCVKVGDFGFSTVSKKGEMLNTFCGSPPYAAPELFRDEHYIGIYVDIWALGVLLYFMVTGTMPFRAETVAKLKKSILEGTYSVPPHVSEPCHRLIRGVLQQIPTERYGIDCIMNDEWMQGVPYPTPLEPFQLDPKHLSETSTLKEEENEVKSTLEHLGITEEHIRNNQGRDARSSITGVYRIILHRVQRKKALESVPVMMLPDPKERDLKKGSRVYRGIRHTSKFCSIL
T19 sequence (P36896 24-505): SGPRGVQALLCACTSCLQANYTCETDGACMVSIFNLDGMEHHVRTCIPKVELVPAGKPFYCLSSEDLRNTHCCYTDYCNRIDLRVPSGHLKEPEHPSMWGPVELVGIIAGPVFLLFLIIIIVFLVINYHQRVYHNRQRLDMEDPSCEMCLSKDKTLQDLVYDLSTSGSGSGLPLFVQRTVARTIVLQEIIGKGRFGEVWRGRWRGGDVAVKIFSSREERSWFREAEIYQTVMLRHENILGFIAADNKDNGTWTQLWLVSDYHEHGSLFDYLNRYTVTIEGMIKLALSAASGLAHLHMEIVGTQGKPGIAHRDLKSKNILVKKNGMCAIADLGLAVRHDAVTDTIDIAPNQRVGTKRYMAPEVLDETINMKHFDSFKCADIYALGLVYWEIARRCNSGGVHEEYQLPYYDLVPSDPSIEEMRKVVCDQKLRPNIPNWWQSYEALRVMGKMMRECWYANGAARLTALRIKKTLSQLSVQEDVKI
T8 sequence (P23458 875-1154 limits assumed): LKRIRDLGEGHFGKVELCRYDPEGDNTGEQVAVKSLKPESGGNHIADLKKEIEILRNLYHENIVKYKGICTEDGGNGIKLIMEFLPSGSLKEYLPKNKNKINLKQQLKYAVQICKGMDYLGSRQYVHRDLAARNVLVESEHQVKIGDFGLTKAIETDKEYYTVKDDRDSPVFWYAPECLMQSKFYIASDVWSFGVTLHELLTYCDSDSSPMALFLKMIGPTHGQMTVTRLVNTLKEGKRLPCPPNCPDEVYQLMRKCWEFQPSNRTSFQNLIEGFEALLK
T20 sequence (Q15746 whole entry): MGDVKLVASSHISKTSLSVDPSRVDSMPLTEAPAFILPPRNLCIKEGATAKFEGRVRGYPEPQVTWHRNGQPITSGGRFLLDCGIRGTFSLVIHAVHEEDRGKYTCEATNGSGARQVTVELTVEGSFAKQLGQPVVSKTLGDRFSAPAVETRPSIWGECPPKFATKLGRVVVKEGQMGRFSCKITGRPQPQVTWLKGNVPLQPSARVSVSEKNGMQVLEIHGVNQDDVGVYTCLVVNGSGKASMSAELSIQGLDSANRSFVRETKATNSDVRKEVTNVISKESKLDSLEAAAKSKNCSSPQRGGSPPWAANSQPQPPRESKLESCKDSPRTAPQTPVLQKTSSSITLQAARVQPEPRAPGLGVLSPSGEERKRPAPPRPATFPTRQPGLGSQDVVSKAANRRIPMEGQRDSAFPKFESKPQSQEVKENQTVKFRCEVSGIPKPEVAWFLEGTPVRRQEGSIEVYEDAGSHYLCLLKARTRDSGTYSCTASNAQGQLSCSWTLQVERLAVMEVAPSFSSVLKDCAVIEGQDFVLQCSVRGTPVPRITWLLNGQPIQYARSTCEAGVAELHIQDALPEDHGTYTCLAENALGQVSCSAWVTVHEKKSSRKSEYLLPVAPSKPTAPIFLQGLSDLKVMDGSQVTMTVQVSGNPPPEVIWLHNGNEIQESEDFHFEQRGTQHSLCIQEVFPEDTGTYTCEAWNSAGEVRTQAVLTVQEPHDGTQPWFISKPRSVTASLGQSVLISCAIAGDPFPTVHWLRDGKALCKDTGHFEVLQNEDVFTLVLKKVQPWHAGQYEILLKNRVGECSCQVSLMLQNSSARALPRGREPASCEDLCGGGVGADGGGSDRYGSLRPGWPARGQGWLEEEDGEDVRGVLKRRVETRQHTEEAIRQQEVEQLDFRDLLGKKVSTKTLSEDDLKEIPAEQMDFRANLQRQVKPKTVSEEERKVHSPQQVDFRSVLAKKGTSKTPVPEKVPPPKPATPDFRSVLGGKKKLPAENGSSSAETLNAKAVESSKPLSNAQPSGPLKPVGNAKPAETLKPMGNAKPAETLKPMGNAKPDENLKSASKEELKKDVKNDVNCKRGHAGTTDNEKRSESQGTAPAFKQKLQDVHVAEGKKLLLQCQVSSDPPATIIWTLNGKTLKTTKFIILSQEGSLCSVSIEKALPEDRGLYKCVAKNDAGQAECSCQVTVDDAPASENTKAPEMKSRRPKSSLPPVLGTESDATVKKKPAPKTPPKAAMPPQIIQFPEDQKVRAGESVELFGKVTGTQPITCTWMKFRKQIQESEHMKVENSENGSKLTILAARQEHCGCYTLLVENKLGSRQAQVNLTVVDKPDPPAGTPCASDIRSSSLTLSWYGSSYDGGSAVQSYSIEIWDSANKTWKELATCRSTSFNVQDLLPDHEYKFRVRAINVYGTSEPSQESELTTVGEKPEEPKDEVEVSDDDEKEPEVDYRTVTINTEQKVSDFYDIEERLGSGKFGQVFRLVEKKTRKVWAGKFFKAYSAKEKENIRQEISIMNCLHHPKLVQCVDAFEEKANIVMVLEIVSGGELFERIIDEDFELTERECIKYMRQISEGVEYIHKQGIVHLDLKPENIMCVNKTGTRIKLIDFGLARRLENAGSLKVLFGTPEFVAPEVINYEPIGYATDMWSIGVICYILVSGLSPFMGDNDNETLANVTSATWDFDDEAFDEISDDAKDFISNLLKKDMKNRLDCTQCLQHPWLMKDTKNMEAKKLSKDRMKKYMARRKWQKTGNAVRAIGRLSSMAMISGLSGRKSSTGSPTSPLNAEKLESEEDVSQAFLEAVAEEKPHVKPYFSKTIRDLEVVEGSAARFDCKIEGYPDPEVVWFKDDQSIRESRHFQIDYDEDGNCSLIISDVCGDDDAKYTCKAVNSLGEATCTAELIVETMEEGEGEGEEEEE
T16 sequence (Q96NX5 whole entry): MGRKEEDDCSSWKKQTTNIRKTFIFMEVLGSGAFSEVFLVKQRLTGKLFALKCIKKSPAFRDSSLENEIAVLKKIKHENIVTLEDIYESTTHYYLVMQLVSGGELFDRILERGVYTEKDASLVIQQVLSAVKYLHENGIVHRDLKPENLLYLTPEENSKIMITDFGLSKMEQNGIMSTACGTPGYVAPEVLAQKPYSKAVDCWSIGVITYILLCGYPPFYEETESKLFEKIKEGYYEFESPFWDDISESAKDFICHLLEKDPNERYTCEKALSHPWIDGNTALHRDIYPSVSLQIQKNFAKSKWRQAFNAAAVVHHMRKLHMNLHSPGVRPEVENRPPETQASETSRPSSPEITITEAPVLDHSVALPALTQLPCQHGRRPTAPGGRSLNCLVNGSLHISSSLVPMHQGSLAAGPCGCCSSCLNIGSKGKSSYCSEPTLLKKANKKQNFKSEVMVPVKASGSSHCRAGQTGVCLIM

## C=CC(=O)N1CCC[C@@H](n2nc(-c3ccc(OCc4cccc(C)n4)c(Cl)c3)c3c(N)ncnc32)C1 [CHMFL-EGFR-26]
NIM1
  remaining binding at 1 µM: 96%
HPK1
  remaining binding at 1 µM: 100%
RIPK1
  remaining binding at 1 µM: 100%
[1]
  remaining binding at 1 µM: 20%
KIT-autoinhibited
  remaining binding at 1 µM: 95%
SRPK1
  remaining binding at 1 µM: 100%
TIE1
  remaining binding at 1 µM: 69%
[2]
  remaining binding at 1 µM: 91%
CAMKK1
  remaining binding at 1 µM: 88%
EGFR(T790M)
  remaining binding at 1 µM: 0.25%
PCTK3
  remaining binding at 1 µM: 94%
IKK-epsilon
  remaining binding at 1 µM: 100%
PIK3CA(E542K)
  remaining binding at 1 µM: 93%
EGFR(L861Q)
  remaining binding at 1 µM: 0.9%
CSNK1G1
  remaining binding at 1 µM: 87%
CAMK1G
  remaining binding at 1 µM: 97%
CSNK1A1L
  remaining binding at 1 µM: 91%
GSK3A
  remaining binding at 1 µM: 100%
ACVR1B
  remaining binding at 1 µM: 30%
MYLK
  remaining binding at 1 µM: 100%
MUSK
  remaining binding at 1 µM: 84%
p38-beta
  remaining binding at 1 µM: 100%
RET
  remaining binding at 1 µM: 95%
AURKC
  remaining binding at 1 µM: 87%
PC9 tumor xenografts; 25 mg/kg/d oral
  Tumor weight (final, mean): 0.93 g
PC9 tumor xenografts; 50 mg/kg/d oral
  Tumor weight (final, mean): 0.68 g
PIK3C2B
  remaining binding at 1 µM: 100%
PIK3CG
  remaining binding at 1 µM: 100%
EGFR(L747-T751del,Sins)
  % control: 21%
